Laboratory results as given in ChEMBL document CHEMBL5046270, “A Selective and Orally Bioavailable Quinoline-6-Carbonitrile-Based Inhibitor of CDK8/19 Mediator Kinase with Tumor-Enriched Pharmacokinetics” (J Med Chem, 2022).
Activity calls are given as the source filed them. The rule behind the calls is not given here.

Legend:
[1] = target: T1, Serine/threonine-protein kinase haspin (Homo sapiens) (UniProt Q8TF76); test: Inhibition of human HASPIN at 2 uM by competition binding assay relative to control; details: values are per cent of control
T1 sequence (whole entry): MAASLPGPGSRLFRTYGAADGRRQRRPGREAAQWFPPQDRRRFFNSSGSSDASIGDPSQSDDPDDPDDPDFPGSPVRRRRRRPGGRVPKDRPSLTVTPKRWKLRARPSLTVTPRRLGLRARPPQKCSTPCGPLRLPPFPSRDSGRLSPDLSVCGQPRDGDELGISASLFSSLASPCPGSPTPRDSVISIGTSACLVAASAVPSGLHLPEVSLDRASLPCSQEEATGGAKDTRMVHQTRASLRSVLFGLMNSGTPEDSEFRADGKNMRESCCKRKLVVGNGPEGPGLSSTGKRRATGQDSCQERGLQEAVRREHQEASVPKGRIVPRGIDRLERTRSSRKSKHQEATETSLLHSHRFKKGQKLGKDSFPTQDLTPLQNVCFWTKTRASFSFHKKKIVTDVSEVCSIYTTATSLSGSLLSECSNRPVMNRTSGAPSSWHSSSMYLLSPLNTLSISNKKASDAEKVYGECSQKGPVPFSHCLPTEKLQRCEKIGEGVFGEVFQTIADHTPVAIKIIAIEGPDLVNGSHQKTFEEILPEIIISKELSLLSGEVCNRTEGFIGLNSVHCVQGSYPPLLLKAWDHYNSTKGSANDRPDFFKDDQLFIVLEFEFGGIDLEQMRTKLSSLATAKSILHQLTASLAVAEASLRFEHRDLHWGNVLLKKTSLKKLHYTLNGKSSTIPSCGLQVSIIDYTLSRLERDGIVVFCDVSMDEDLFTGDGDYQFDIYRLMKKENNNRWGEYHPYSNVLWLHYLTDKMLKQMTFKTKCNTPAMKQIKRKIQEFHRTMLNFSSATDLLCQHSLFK

[2] = target: CDK8/Cyclin C (Homo sapiens) (UniProt P49336+P24863); test: Binding affinity to kinase tracer 236 binding to His tagged recombinant human CDK8/cyclinC assessed as rate constant (koff) by TR FRET based assay; assay type: protein-complex assay
[3] = Downregulation of CDK8/19 in HEK293 cells assessed as mRNA expression level in MYC gene at 1 uM for 3 hrs pretreatment and measured after 24 hr post wash-off by qt-PCR analysis; assay type: functional; details: Homo sapiens, time 27 hrs
MV4-11 = test: Antitumor activity against human luciferase expressing MV4-11 AML cells xenografted in NOD SCID NSG mouse assessed as supression of tumor growth at 40 mg/kg, po bid for 4 weeks by bioluminescence imaging method; assay type: functional, organism-based
[4] = Half life in plasma of BALB/c mouse xenografted with mouse CT26 cells at 2.5 mg/kg, iv by LC-MS/MS analysis; assay type: ADME, organism-based
[5] = target: Cyclin-dependent kinase 8 (Homo sapiens) (UniProt P49336); test: Inhibition of human CDK8 at 2 uM by competition binding assay relative to control; values are per cent of control
Cyclin-dependent kinase 8 (Homo sapiens), sequence (P49336 whole entry): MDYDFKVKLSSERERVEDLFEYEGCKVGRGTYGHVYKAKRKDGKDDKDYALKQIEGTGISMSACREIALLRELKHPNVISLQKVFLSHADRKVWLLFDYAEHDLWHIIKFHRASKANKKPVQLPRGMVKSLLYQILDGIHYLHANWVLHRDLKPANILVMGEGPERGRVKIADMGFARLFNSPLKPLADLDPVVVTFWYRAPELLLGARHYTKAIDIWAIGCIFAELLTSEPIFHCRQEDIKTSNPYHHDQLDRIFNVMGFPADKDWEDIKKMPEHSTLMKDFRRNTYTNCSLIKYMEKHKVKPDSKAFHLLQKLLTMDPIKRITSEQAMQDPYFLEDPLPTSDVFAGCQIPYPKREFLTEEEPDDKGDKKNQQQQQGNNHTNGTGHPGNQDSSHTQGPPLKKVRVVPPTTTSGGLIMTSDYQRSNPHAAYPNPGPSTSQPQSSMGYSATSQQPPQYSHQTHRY

What does the source list for `CN1CCN(C(=O)c2ccc3cc(CCNc4ccnc5ccc(C#N)cc45)ccc3c2)CC1`?
residual binding, % of control [1]: 29%; K [2]: 0.00122 s⁻¹; inhibition at 1 µM [3]: 30%; Activity (MV4-11): Active; half-life [4]: 45 min; residual activity [5]: 1%
